In patent US20260102413A1, “TREATING PAIN ASSOCIATED WITH CENTRAL SENSITIZATION” (Medicon Pharmaceuticals, Inc., priority 2022, published 2026):

Assays:
[1] = type: in vivo, mouse; conditions: all tissues except the sciatic nerve (higher) and DRG (equal)
Method: At 0.5, 1, 3, 5, 12, 18, and 24 h, mice (n=4-5 mice/time point) were euthanized with CO2 inhalation. Blood was drawn immediately after death. Tissues, including paw skin, paw muscle, leg muscle, the sciatic nerve and lumbar DRG bilaterally were dissected quickly, immediately frozen in liquid nitrogen and stored at −80° C. until analyzed.

[2] = system: mice with paclitaxel-induced neuropathic pain (CIPN); experiment: von Frey paw withdrawal threshold (mechanical allodynia), paclitaxel-induced CIPN / central sensitization, treatment of established pain, topical test compounds; type: in vivo, mouse; conditions: paclitaxel mice; PS hydrogel 5%, sulindac 0.7% topical hind paws 3x/day from day 0; lidocaine 5% cream once 30 min before; pregabalin 10 mg/kg oral once 1 h before; day 14
Method: Paw withdrawn, licking or shaking were considered positive responses.
(§1) The first doses were administered 5 days after the last administration of paclitaxel (i.e., at day 0).
The PWT test was performed prior to the administration of paclitaxel (day −8) to establish the threshold in mice without neuropathic pain associated with CIPN (the value shown is an average of the PWT in all groups at day −8).
Pain associated with CIPN was established in line with the experiments disclosed herein. Mice were treated with naproxen 2.4% (equimolar to PN 5%), aspirin 1.7% (equimolar to PA2 5%); or ibuprofen 2.5% (equimolar to PI 5%) or vehicle applied topically to both hind paws 3×/day for 14 days.
CIPN was induced in mice with chemotherapeutic agents using established protocols (Carozzi et al, 2010; Currie et al, 2019; Eldridge et al, 2020).
The first doses were administered 1 day after the last administration of paclitaxel (i.e., at day 0).
as §1
The PWT test was performed on day 21, at the end of the experiment, but was also additionally determined on day 14 for LXIX.

[3] = system: mice with NTG-induced chronic migraine; experiment: von Frey PWT, NTG-induced chronic migraine model; type: in vivo, mouse
Description: The NTG-induced chronic migraine model was used as described previously.

[4] = system: mice with NTG-induced migraine; experiment: von Frey PWT, NTG-induced migraine model, oral or intraperitoneal compounds; type: in vivo, mouse; conditions: oral 30 min after NTG: PS 50, sulindac 33, PN 65, naproxen 35 mg/kg; 30 min after administration
Method: Phosphonaproxen (Formula VIII), and its parent compound, naproxen, were administered orally to each mouse group. All compounds were administered at equimolar doses. In particular, phosponaproxen was administered at 65 mg/kg, and naproxen was administered at 35 mg/kg, 30 minutes after NTG administration. The response of mechanical allodynia was tested 30 minutes after administration.

STZ-diabetic rats = type: in vivo, rat; conditions: PS 8% hydrogel, sulindac 0.7% hydrogel 3x/day day −2 to 28; lidocaine cream 5% once 30 min before; STZ day 0; day 28
Description: The animal model corresponds to that used for Example 4, but using a prevention protocol. As in Example 4, the outcome measure, determining the effect of the treatment on the prevention of mechanical allodynia, was the PWT test, using von Frey filaments. The measurements were taken at day −3, before treatment or induction of neuropathic pain associated with DPN, and again at the end of the study period (day 28).
The rats were randomised into treatment groups as follows, all having an average body weight of about 225 g. • 1. Group 1: naïve rats (n=6) • 2. Group 2: STZ only (n=8) • 3. Group 3: STZ plus vehicle (n=8) • 4. […] Group 5: STZ plus sulindac 0.7% (n=8) • 6. Group 6: STZ plus lidocaine cream 5% (n=8)
Each treatment group was subjected to a PWT assessment at day −3 in order to determine the baseline of mechanical allodynia.
For those rats in the lidocaine treatment group, lidocaine cream was applied only once to both hind paws of the rats 30 min before the final PWT measurement on day 28. On day 0, neuropathic pain associated with DPN was induced with the administration of STZ, and the blood glucose was checked on day 3.

[5] = drug levels in proximal and distal half of the sciatic nerve after topical PS; type: in vivo, mouse; conditions: paclitaxel-PN mice, PS 8% ointment 3x/d 2 wks; 30 min after last dose
Method: In a separate experiment we studied 8 mice with paclitaxel-induced PN treated with PS 8% ointment 3×/d for 2 wks. Mice were euthanized as above 30 minutes after the last dose of PS. From these mice we harvested both sciatic nerves dividing each into proximal and distal halves, and combined the corresponding halves of every two animals for assay of drug levels.

[6] = system: mice with chronic constriction injury (PTPN); experiment: von Frey PWT, CCI model of PTPN, orally administered compounds; type: in vivo, mouse; conditions: oral once a day: PS 50, PSA 50, sulindac 33 mg/kg
Method: Phospho-ibuprofen (PI) (Formula III), phospho-ibuprofen-amide (PIA) (Formula XI), ibuprofen and vehicle control were all administered orally, three times a day for 14 days. Their doses were as follows: PI 80 mg/kg, PIA 80 mg/kg, ibuprofen 40 mg/kg (all three are equimolar). […] Group 1: vehicle (n=5-8) • 2. Group 2: ibuprofen (n=5-8) • 3. Group 3: phospho-ibuprofen (PI) (n=5-8) • 4. Group 4: phospho-ibuprofen-amide (PIA) (n=5-8)

[7] = system: mice with paclitaxel-induced CIPN; experiment: thermal allodynia (paw withdrawal latency, radiant heat), paclitaxel CIPN model; type: in vivo, mouse; conditions: oral PS 50 mg/kg, sulindac 33 mg/kg 3x/day, day 16 of treatment
Method: Group 3: paclitaxel pluse sulindac (n=8)
Thermal allodynia was also determined for the mice study groups below (with 8 mice per group): • 1. Group 1: naïve mice (i.e. no paclitaxel) • 2. Group 2: paclitaxel only • 3. Group 3: paclitaxel plus vehicle • 4. Group 4: paclitaxel plus NO-sulindace • 5. Group 5: paclitaxel plus thiol-sulindac

[8] = system: mice with chronic constriction injury of the left sciatic nerve (PTPN); experiment: von Frey PWT, chronic constriction injury (CCI) model of PTPN, topical compounds; type: in vivo, mouse; conditions: PS 5% gel, sulindac 0.7% gel on left paw 3x/day 14 days; pregabalin (10 mg/ml) oral gavage once 1 h before; day 14
Method: The PWT test was performed following ligation, but prior to treatment to determine baseline values. The PWT was then further measured on day 14.

In the case of `CC1=C(CC(=O)O)c2cc(F)ccc2/C1=C\c1ccc([S+](C)[O-])cc1` (centres unmarked) [sulindac, reference compound], the “sulindac levels as % of those of PS” value [1] is reported as “around 25%”, the “PWT, g Mean ± SEM” value [2] is reported as 0.62 ± 0.05 g and the “PWT, g Mean ± SEM, Day 11” value ([3]; NTG 0.4 mg sublingual every two days x5, oral once a day 11 days: PS 50, sulindac 33 mg/kg, 30 min after administration) is reported as 0.43 ± 0.03 g. The “PWT, g Mean ± SEM, Baseline” value ([3]; group baseline prior to NTG administration) was 1.80 ± 0.12 g, the “PWT, g Mean ± SEM” value [4] was 0.60 ± 0.04 g and the “von Frey, gm mean ± SEM” value (STZ-diabetic rats) was 27.7 ± 1.4 gm. The “Fold difference distal vs proximal” value [5] was 8.5, the “PWT, g Mean ± SEM” value ([6]; Day 6) was “Day 6 = 0.6 ± 0.03 g” and the “PWT, g Mean ± SEM” value ([6]; Day 14) was “Day 14 = 0.6 ± 0.0 g”. For the same compound, the “PWL, sec Mean ± SEM” value [7] was 7.87 ± 0.7 s and the “PWT, g Mean ± SEM” value [8] was 0.63 ± 0.07 g.
